Source: article PMC5487351, “Galactosylsphingamides: new α-GalCer analogues to probe the F’-pocket of CD1d” (Scientific Reports, 2017)

Biological target: T1, mCD1d (mCD1-β2M) (Mus musculus, UniProt P11609)
T1 construct: gene Cd1d1; soluble CD1d ectodomain with beta2-microglobulin, insect cells; glycolipid-loaded; with Beta-2-microglobulin
T1 sequence (P11609 19-297): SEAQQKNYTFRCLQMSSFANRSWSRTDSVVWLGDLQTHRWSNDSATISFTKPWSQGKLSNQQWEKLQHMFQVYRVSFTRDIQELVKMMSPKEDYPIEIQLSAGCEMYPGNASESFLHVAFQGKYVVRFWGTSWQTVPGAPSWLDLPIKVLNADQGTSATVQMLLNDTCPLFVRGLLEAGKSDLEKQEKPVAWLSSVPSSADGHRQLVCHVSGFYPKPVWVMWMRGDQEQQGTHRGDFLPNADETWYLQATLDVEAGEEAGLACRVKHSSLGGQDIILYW
T1 sequence (P01887 21-119 partner): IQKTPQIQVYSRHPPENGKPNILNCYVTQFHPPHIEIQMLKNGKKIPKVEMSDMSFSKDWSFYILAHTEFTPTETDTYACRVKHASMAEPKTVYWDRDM
Assay: X-ray crystal structure, […] Å
Conditions: CD1d binding groove (A' and F' pockets); spacer lipid in A' pocket

## CCCCCCCC(=O)N[C@@H](CO[C@H]1O[C@H](CO)[C@H](O)[C@H](O)[C@H]1O)[C@H](O)[C@H](O)CCCC(=O)NCCCCCCc1ccccc1 [5d, (5R,6S,7S)-5,6-dihydroxy-8-O-(α-D-galactopyranosyl)-7-octanamido-N-(6-phenylhexyl)octanamide]
  X-ray crystal structure, 1.75 Å: we determined the crystal structure of the CD1d/5d-complex
